Measured values taken from patent publication US20100028395A1, “COMPOSITIONS CONTAINING N-ACETYLGLUCOSAMINE FOR USE IN DERMO-COSMETOLOGY AND AESTHETIC MEDICINE” (ROTTAPHARM S.P.A., priority 2007, published 2010).

How the values were obtained:
Format in all cases: cell-based
[1] = test system: Human fibroblasts, Detroit 551 ATCC CCL III; assay: Stimulation of HA synthesis in human fibroblast cultures (EIA HA assay); conditions: for HA(ng/well) (Diff. from baseline) / HA (%) (Diff. from baseline): 48 h; for HA (%) from NAG (consistent doses): see Table 2
Text: The test has been conducted in two stages, i.e.: • stage A: in which the stimulation of HA expression by COMBI has been evaluated while maintaining the concentration constant and varying the reciprocal quantities of its components. The concentration used has been selected so as to enable comparison with the results derived from stage B; • stage B: in which the effect of CA on HA expression has been evaluated by varying its concentration and in comparison with doses consistent with its components. […] Human fibroblasts have been grown in suitable growth medium (Eagle's minimal essential medium) supplemented with 10% foetal calf serum (FCS), 1 mM sodium pyruvate, 2 mM glutamine, non-essential aminoacids and 50 μg/ml glutamycin. […] After 48 hours, the supernatant has been removed and used for the determination of the parameters of interest. The test has been conducted in duplicate and untreated cell cultures have been used as controls. HA has been assayed (dosed) by means of an immuno-enzymatic test using a commercially available kit (EIA, Corgenix). De novo HA synthesis has been evaluated in the culture medium following treatment with the test substances, according to the protocol provided with the test, and against the calibration curve obtained using the HA standard contained in the kit. […] • evaluation of the effects of the substances tested, at the various concentrations, on fibroblast cultures has been expressed as the absolute and percent increase or decrease of the HA expression, with respect to the corresponding control culture, after 48 hours of incubation. The percentage difference increase or decrease of the effects exerted by CA and NAG, at corresponding concentrations, have then been calculated, with evaluation of their potential significance by means of the Student's “t” test.

[2] = test system: Human fibroblasts, Detroit 551 ATCC CCL III; assay: Stimulation of collagen synthesis in human fibroblast cultures (Sircol assay); conditions: 24 h
Text: The scope of the test has been the evaluation and the comparison of the potential stimulation exerted by the test substances on the expression of collagen and elastin in “in vitro” cultures of skin-derived cells, such as fibroblasts. The test in question, even though conducted “in vitro”, can be considered to be predictive of the effects of use of the same substances “in vivo”. […] The samples have been dissolved directly in the culture medium. Each sample has been tested in duplicate and the experiments have been repeated twice. The parameters of interest have been determined after 24 hours on separate plates. Untreated cell cultures have been used as controls. A commercially available kit (Sircol™, biodye science) which uses the capacity of the stain Sirius Red to interact with the basic side chains of the aminoacids present in collagen itself, has been used for collagen assays. De novo collagen synthesis has been evaluated in the culture medium following treatment with the test substances, following the protocol provided with the kit, and by using the calibration curve obtained employing the collagen standard contained in turn in the kit. Evaluation of the effects of the substances tested, at the various concentrations, on fibroblast cultures, has been expressed as the absolute and percent increase or decrease of collagen and elastin expression, with respect to the corresponding control culture, after 24 hours of incubation. The percentage difference increase or decrease of the effects exerted by CA and NAG, at corresponding concentrations, have then been calculated, with consequent evaluation of their potential statistical significance by means of the test Student “t” test.

[3] = test system: Human keratinocyte primary culture: HEKA; assay: Stimulation of protein synthesis in human keratinocyte cultures (Lowry method); conditions: keratinocytes
Method: The following have been used: • Human fibroblasts, Detroit 551 ATCC CCL III from LGC Promochem (Milan, Italy); • Human keratinocyte primary culture: HEKA, Cascade Biologics, cat. 005-5C. Test substances and concentrations
The substances and concentrations tested are those reported below (on both fibroblasts and keratinocytes): • CA: 0.13, 0.66, 1.32, and 2.64 mg/ml • NAG: 0.1, 0.5, 1.0, and 2.0 mg/ml
The method is identical to that already described for collagen and elastin with the difference that, following the addition of the test substances into the culture medium, the medium has been substituted daily for three days. Each sample has been tested in duplicate and the experiments have been repeated twice. The parameter of interest, i.e. protein synthesis, has been evaluated at 24, 48 and 72 hours on separate plates. Untreated cell cultures have been used as controls.
Protein has been assayed using the Lowry method [Lowry et al. 1951] consisting of a Biuret reduction reaction envisaging the use of Folin-Ciocalteau reagent as chromophore, with a yellow to blue colour change and spectrophotometric measurement at 750 nm [Creighton et al. 1984; Sengupta et al. 1993].
The protein content of the cultures in question has been obtained from comparison of their optical densities with a titration curve made using albumin as a protein standard.
Evaluation of the effect of the substances tested, at the various concentrations and times, on cultures of both fibroblasts and keratinocytes has been expressed in both absolute terms (expressed protein production in mg/ml) and as percentage increase or decrease with respect to control cultures.
The percentage difference increase or decrease of the effects exerted by CA and NAG, over various days and at the corresponding concentrations, have then been calculated, with evaluation of their potential statistical significance by means of the test Student “t” test.

CC(=O)N[C@@H](C=O)[C@@H](O)[C@H](O)[C@H](O)CO [NAG, N-acetyl-2-amino-2 deoxyglucose]
HA(ng/well) (Diff. from baseline) ([1]; NAG 0.50 mg/ml): +54 ng/well
HA (%) (Diff. from baseline) ([1]; NAG 1.00 mg/ml): +58.98%
HA(ng/well) (Diff. from baseline) ([1]; NAG 1.00 mg/ml): +289 ng/well
HA (%) (Diff. from baseline) ([1]; NAG 1.50 mg/ml): +76.12%
HA(ng/well) (Diff. from baseline) ([1]; NAG 1.50 mg/ml): +373 ng/well
HA (%) (Diff. from baseline) ([1]; NAG 2.00 mg/ml): +78.78%
HA(ng/well) (Diff. from baseline) ([1]; NAG 2.00 mg/ml): +386 ng/well
HA (%) (Diff. from baseline) ([1]; NAG 2.50 mg/ml): +96.73%
HA(ng/well) (Diff. from baseline) ([1]; NAG 2.50 mg/ml): +474 ng/well
HA (%) from NAG (consistent doses) ([1]; NAG alone at 0.93 mg/ml (content of 1:3.5 combination)): ≈59%
HA (%) from NAG (consistent doses) ([1]; NAG alone at 1.71 mg/ml (content of 1:0.5 combination)): +76.12-+78.8%
Collagen (%) (Diff. from baseline) ([2]; NAG 0.50 mg/ml): +1.64%
Collagen(μg/ml) (Diff. from baseline) ([2]; NAG 0.50 mg/ml): +0.07 μg/ml
Collagen (%) (Diff. from baseline) ([2]; NAG 1.00 mg/ml): +30.28%
Collagen(μg/ml) (Diff. from baseline) ([2]; NAG 1.00 mg/ml): +1.29 μg/ml
Collagen (%) (Diff. from baseline) ([2]; NAG 1.50 mg/ml): +36.15%
Collagen(μg/ml) (Diff. from baseline) ([2]; NAG 1.50 mg/ml): +1.54 μg/ml
Collagen (%) (Diff. from baseline) ([2]; NAG 2.00 mg/ml): +32.86%
Collagen(μg/ml) (Diff. from baseline) ([2]; NAG 2.00 mg/ml): +1.33 μg/ml
Collagen (%) (Diff. from baseline) ([2]; NAG 2.50 mg/ml): +47.65%
Collagen(μg/ml) (Diff. from baseline) ([2]; NAG 2.50 mg/ml): +2.03 μg/ml
Expr. prot. from NAG % incr. over baseline ([3]; NAG 0.10 mg/ml, 24 hours): −34.7%
Expr. prot. from NAG (mg/ml) - Mean +/− st. dev. ([3]; NAG 0.10 mg/ml, 24 hours): 0.16 ± 0.037 mg/mL
Expr. prot. from NAG (mg/ml) - Mean +/− st. dev. ([3]; NAG 0.10 mg/ml, 48 hours): 0.42 ± 0.15 mg/mL
Expr. prot. from NAG % incr. over baseline ([3]; NAG 0.10 mg/ml, 72 hours): +15.5%
Expr. prot. from NAG (mg/ml) - Mean +/− st. dev. ([3]; NAG 0.10 mg/ml, 72 hours): 0.67 ± 0.09 mg/mL
Expr. prot. from NAG % incr. over baseline ([3]; NAG 0.50 mg/ml, 24 hours): −10.2%
Expr. prot. from NAG (mg/ml) - Mean +/− st. dev. ([3]; NAG 0.50 mg/ml, 24 hours): 0.22 ± 0.039 mg/mL
Expr. prot. from NAG (mg/ml) - Mean +/− st. dev. ([3]; NAG 0.50 mg/ml, 48 hours): 0.40 ± 0.12 mg/mL
Expr. prot. from NAG % incr. over baseline ([3]; NAG 0.50 mg/ml, 72 hours): +10.3%
Expr. prot. from NAG (mg/ml) - Mean +/− st. dev. ([3]; NAG 0.50 mg/ml, 72 hours): 0.64 ± 0.12 mg/mL
Expr. prot. from NAG % incr. over baseline ([3]; NAG 1.00 mg/ml, 24 hours): +44.9%
Expr. prot. from NAG (mg/ml) - Mean +/− st. dev. ([3]; NAG 1.00 mg/ml, 24 hours): 0.36 ± 0.047 mg/mL
Expr. prot. from NAG % incr. over baseline ([3]; NAG 1.00 mg/ml, 48 hours): +41.2%
Expr. prot. from NAG (mg/ml) - Mean +/− st. dev. ([3]; NAG 1.00 mg/ml, 48 hours): 0.48 ± 0.11 mg/mL
Expr. prot. from NAG % incr. over baseline ([3]; NAG 1.00 mg/ml, 72 hours): +20.7%
Expr. prot. from NAG (mg/ml) - Mean +/− st. dev. ([3]; NAG 1.00 mg/ml, 72 hours): 0.70 ± 0.08 mg/mL
Expr. prot. from NAG (mg/ml) - Mean +/− st. dev. ([3]; NAG 2.00 mg/ml, 24 hours): 0.38 ± 0.050 mg/mL
Expr. prot. from NAG % incr. over baseline ([3]; NAG 2.00 mg/ml, 48 hours): +38.2%
Expr. prot. from NAG (mg/ml) - Mean +/− st. dev. ([3]; NAG 2.00 mg/ml, 48 hours): 0.47 ± 0.12 mg/mL
Expr. prot. from NAG % incr. over baseline ([3]; NAG 2.00 mg/ml, 72 hours): +43.1%
Expr. prot. from NAG (mg/ml) - Mean +/− st. dev. ([3]; NAG 2.00 mg/ml, 72 hours): 0.83 ± 0.070 mg/mL
